Target: T1, Steryl-sulfatase (Homo sapiens, UniProt P08842)
T1 sequence (P08842 whole entry): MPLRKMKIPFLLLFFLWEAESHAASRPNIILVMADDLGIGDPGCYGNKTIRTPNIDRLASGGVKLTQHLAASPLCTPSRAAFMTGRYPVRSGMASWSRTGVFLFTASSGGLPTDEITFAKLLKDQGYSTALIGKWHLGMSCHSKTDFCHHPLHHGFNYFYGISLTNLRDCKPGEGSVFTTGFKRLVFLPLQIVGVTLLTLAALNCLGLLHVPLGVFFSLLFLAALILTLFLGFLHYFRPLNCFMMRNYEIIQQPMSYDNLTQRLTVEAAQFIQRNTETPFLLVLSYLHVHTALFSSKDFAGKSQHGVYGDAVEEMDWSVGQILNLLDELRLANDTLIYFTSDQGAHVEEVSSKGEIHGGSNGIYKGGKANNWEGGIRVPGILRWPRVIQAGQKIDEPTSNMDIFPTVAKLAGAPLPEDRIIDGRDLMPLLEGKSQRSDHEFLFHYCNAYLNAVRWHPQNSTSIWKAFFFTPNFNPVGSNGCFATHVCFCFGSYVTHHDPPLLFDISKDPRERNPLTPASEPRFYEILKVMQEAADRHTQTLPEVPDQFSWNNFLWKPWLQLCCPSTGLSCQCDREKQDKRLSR
Assay: Inhibition of human placental steroid sulfatase using p-nitrophenyl sulfate as substrate after 15 mins by microplate reader method

Structure (SMILES) | IC50 [µM]
CC1(C)COP(=O)(Nc2ccc(-c3cc4ccc(OS(N)(=O)=O)cc4oc3=O)cc2)OC1 | 0.45
CCCCOP(=O)(Nc1ccc(-c2cc3ccc(OS(N)(=O)=O)cc3oc2=O)cc1)OCCCC | 0.31
NS(=O)(=O)Oc1ccc2cc(-c3ccc(NP4(=O)OCCCO4)cc3)c(=O)oc2c1 | 0.7
NS(=O)(=O)Oc1ccc2cc(-c3ccc(NP(=O)(OCc4ccccc4)OCc4ccccc4)cc3)c(=O)oc2c1 | 0.24
COP(=O)(Nc1ccc(-c2cc3ccc(OS(N)(=O)=O)cc3oc2=O)cc1)OC | 0.78
CCOP(=O)(Nc1ccc(-c2cc3ccc(OS(N)(=O)=O)cc3oc2=O)cc1)OCC | 0.51

The remaining compounds from weak to strong by IC50, led by results:

IC50 [µM] | Structure (SMILES)
1.38 | NS(=O)(=O)Oc1ccc2ccc(=O)oc2c1
1.03 | Cc1cc(=O)oc2cc(OS(N)(=O)=O)ccc12
0.47 | CC(C)OP(=O)(Nc1ccc(-c2cc3ccc(OS(N)(=O)=O)cc3oc2=O)cc1)OC(C)C
0.19 | NS(=O)(=O)Oc1ccc2cc(-c3ccc(NP(=O)(Oc4ccccc4)Oc4ccccc4)cc3)c(=O)oc2c1
